Data published in patent US8546451B2 (priority 2005, dated 2013).
Marks after values point to notes of the source that are not given here.

Tested on: testosterone, prostate specific antigen (PSA), prostate volume and weight
Assay: 39-week oral pharmacology and toxicology study in male cynomolgus monkey (13-week interim)
Conditions: for Mean serum PSA level / Percentage change of mean PSA levels compared to baseline: 4-week; for Percentage change of mean prostate volumes compared to baseline / Mean prostate volumes (ratio): 6-week; for Mean prostate volumes (ratio): TRUS, normalized to body weight; for Mean prostate weights at necropsy / Percentage change of mean prostate weights compared to baseline: 13-week
[1] = 1 mg/kg/day oral, Estimated final concentrations
[2] = 1 mg/kg/day oral, Quantifiable concentrations only
[3] = 10 mg/kg/day oral, Estimated final concentrations
[4] = 10 mg/kg/day oral, Quantifiable concentrations only
[5] = 100 mg/kg/day oral, Estimated final concentrations
[6] = 100 mg/kg/day oral, Quantifiable concentrations only
[7] = Day 1, 1 mg/kg/day oral, Estimated final concentrations
[8] = Day 1, 1 mg/kg/day oral, Quantifiable concentrations only
[9] = Day 1, 10 mg/kg/day oral, Estimated final concentrations
[10] = Day 1, 10 mg/kg/day oral, Quantifiable concentrations only
[11] = Day 1, 100 mg/kg/day oral, Estimated final concentrations
[12] = Day 1, 100 mg/kg/day oral, Quantifiable concentrations only
[13] = Day 3, 1 mg/kg/day oral, Estimated final concentrations
[14] = Day 3, 1 mg/kg/day oral, Quantifiable concentrations only
[15] = Day 3, 10 mg/kg/day oral, Estimated final concentrations
[16] = Day 3, 10 mg/kg/day oral, Quantifiable concentrations only
[17] = Day 3, 100 mg/kg/day oral, Estimated final concentrations
[18] = Day 3, 100 mg/kg/day oral, Quantifiable concentrations only
[19] = Day 7, 1 mg/kg/day oral, Estimated final concentrations
[20] = Day 7, 1 mg/kg/day oral, Quantifiable concentrations only
[21] = Day 7, 10 mg/kg/day oral, Estimated final concentrations
[22] = Day 7, 10 mg/kg/day oral, Quantifiable concentrations only
[23] = Day 7, 100 mg/kg/day oral, Estimated final concentrations

SMILES: O=C(c1ccc(O)c(F)c1)N(c1ccc(O)cc1)c1ccc(F)cc1 [Compound IV, 3-fluoro-N-(4-fluorophenyl)-4-hydroxy-N-(4-hydroxyphenyl)benzamide]
- PSA reduction (in mean) (10 mg/kg for 4 weeks): 69%
- PSA reduction (in mean) (100 mg/kg for 4 weeks): 87%
- body weight reduction (100 mg/kg, 91 days (FIG. 14)): ~20%
- Mean serum PSA level [1]: 0.9 ng/mL
- Percentage change of mean PSA levels compared to baseline [1]: −11%
- Mean serum PSA level [2]: 0.9 ng/mL
- Percentage change of mean PSA levels compared to baseline [2]: −11%
- Mean serum PSA level [3]: 0.3* ng/mL
- Percentage change of mean PSA levels compared to baseline [3]: −69%
- Mean serum PSA level [4]: 0.3 ng/mL
- Percentage change of mean PSA levels compared to baseline [4]: −64%
- Mean serum PSA level [5]: 0.1^& ng/mL
- Percentage change of mean PSA levels compared to baseline [5]: −87%
- Mean serum PSA level [6]: 0.3 ng/mL
- Percentage change of mean PSA levels compared to baseline [6]: −72%
- Percentage change of mean prostate volumes compared to baseline (1 mg/kg/day oral): 6.8%
- Mean prostate volumes (ratio) (1 mg/kg/day oral): 468
- Percentage change of mean prostate volumes compared to baseline (10 mg/kg/day oral): −25%
- Mean prostate volumes (ratio) (10 mg/kg/day oral): 327
- Percentage change of mean prostate volumes compared to baseline (100 mg/kg/day oral): −45%
- Mean prostate volumes (ratio) (100 mg/kg/day oral): 242
- Mean prostate weights at necropsy (1 mg/kg/day oral): 1.8 grams
- Percentage change of mean prostate weights compared to baseline (1 mg/kg/day oral): 1.7%
- Mean prostate weights at necropsy (10 mg/kg/day oral): 1.3 grams
- Percentage change of mean prostate weights compared to baseline (10 mg/kg/day oral): −24%
- Mean prostate weights at necropsy (100 mg/kg/day oral): 1.4 grams
- Percentage change of mean prostate weights compared to baseline (100 mg/kg/day oral): −21%
- gynecomastia or hyperestrogenicity (91 days (FIG. 14)): No sign of gynecomastia or hyperestrogenicity
- Mean serum testosterone level [7]: 11 ng/mL
- Percentage change of mean serum testosterone levels compared to baseline [7]: 44%
- Mean serum testosterone level [8]: 11 ng/mL
- Percentage change of mean testosterone levels compared to baseline [8]: 44%
- Mean serum testosterone level [9]: 7.6 ng/mL
- Percentage change of mean serum testosterone levels compared to baseline [9]: 54%
- Mean serum testosterone level [10]: 7.6 ng/mL
- Percentage change of mean testosterone levels compared to baseline [10]: 54%
- Mean serum testosterone level [11]: 8.0 ng/mL
- Percentage change of mean serum testosterone levels compared to baseline [11]: 82%
- Mean serum testosterone level [12]: 8.0 ng/mL
- Percentage change of mean testosterone levels compared to baseline [12]: 82%
- Mean serum testosterone level [13]: 7.4 ng/mL
- Percentage change of mean serum testosterone levels compared to baseline [13]: 1.8%
- Mean serum testosterone level [14]: 7.4 ng/mL
- Percentage change of mean testosterone levels compared to baseline [14]: 1.8%
- Mean serum testosterone level [15]: 5.1 ng/mL
- Percentage change of mean serum testosterone levels compared to baseline [15]: 3.5%
- Mean serum testosterone level [16]: 5.1 ng/mL
- Percentage change of mean testosterone levels compared to baseline [16]: 3.5%
- suppression of serum testosterone relative to the baseline value (Day 3, 100 mg/kg/day oral): 60%
- Mean serum testosterone level [17]: 1.8* ng/mL
- Percentage change of mean serum testosterone levels compared to baseline [17]: −60%
- Mean serum testosterone level [18]: 1.8 ng/mL
- Percentage change of mean testosterone levels compared to baseline [18]: −60%
- Mean serum testosterone level [19]: 6.7 ng/mL
- Percentage change of mean serum testosterone levels compared to baseline [19]: −8.1%
- Mean serum testosterone level [20]: 6.7 ng/mL
- Percentage change of mean testosterone levels compared to baseline [20]: −8.1%
- Mean serum testosterone level [21]: 7.7 ng/mL
- Percentage change of mean serum testosterone levels compared to baseline [21]: 57%
- Mean serum testosterone level [22]: 7.7 ng/mL
- Percentage change of mean testosterone levels compared to baseline [22]: 57%
- suppression of serum testosterone relative to the baseline value (Day 7, 100 mg/kg/day oral): 51%
- Mean serum testosterone level [23]: 2.2* ng/mL
- Percentage change of mean serum testosterone levels compared to baseline [23]: −51%
